The test system of assay [1] is cultured human mast cells (CHMC). In words: CHMC low cell density IgE activation: tryptase assay. The assay is classed as cell-based. As to conditions: anti-IgE. Summed up: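 Read-out: tryptase released into supernatant, measured by substrate turnover over 30 min at RT. Low-density CHMC (1000-1500 cells/well, per donor degranulation activity) in MT buffer, 1 hr at 37° C, then anti-IgE challenge 30 min at 37° C.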

The test system is the same in assay [2]. In words: CHMC low cell density ionomycin activation: tryptase assay. The assay is classed as cell-based.

Each structure is given as a SMILES string. Where only a bound is given, the exact number is not on record here.

In general, IC50 refers to the point on the concentration scale where inhibition reaches its midpoint. Higher therefore signals a need for much substance.

`CNC(=O)COc1cccc(Nc2ncc(F)c(Nc3ccc4c(c3)OCC(=O)N4)n2)c1` [R908700, N4-(1,4-Benzoxazine-3-on-7-yl)-5-fluoro-N2-((N-methylacetamido-2)-3-phenoxy)-2,4-pyrimidinediamine]: the IC50 is 1270 nM in assay [1] and > 10 µM in assay [2].
In the same order, the values of `CNC(=O)COc1cccc(Nc2ncc(F)c(Nc3ccc4c(c3)NC(=O)CO4)n2)c1` [R908701] are 99 nM and 7.64 µM.
With `CNC(=O)COc1cccc(Nc2ncc(F)c(Nc3ccc4c(c3)OCCN4C)n2)c1` [R908705, 5-Fluoro-N2-[(N-methylacetamido-2)-3-phenoxy]-N4-(N-methyl-1,4-benzoxazin-7-yl)-2,4-pyrimidinediamine], the IC50 in assay [1] is 801 nM; in assay [2], > 10 µM.
The like results for `CN(C)CCOc1ccc(Nc2ncc(F)c(Nc3cccc(O)c3)n2)cc1` [R909236, N2-[4-(2-N,N-Dimethylamino)ethoxyphenyl]-5-fluoro-N4-(3-hydroxyphenyl)-2,4-pyrimidinediamine] were, in that order, 996 nM and > 10 µM.
The like results for `Fc1cnc(Nc2ccc3c(c2)CCO3)nc1Nc1ccc2c(c1)CCO2` [R909237, N2,N4-Bis(dihydrobenzofuran-5-yl)-5-fluoro-2,4-pyrimidinediaminediamine] were, in that order, > 10000 nM and > 10 µM.
In the same order, the values of `O=C(COc1ccc(Nc2ncc(F)c(Nc3ccc4c(c3)OCCO4)n2)cc1)NCCO` [R909239, N4-(3,4-Ethylendioxyphenyl)-5-fluoro-N2-[4-(N-2-hydroxyethylamino)carbonylmethyleneoxyphenyl]-2,4-pyrimidinediamine] are 264 nM and > 10 µM.
Turning to `CNC(=O)COc1ccc(Nc2ncc(F)c(Nc3ccc4c(c3)OCCO4)n2)cc1` [R909240, N4-(3,4-Ethylendioxyphenyl)-5-fluoro-[4-(N-methylamino)carbonylmethyleneoxyphenyl]-2,4-pyrimidinediamine], the IC50 was 262 nM in assay [1] and > 10 µM in assay [2].
The like results for `CCOC(=O)COc1cccc(Nc2ncc(F)c(Nc3ccc4c(c3)NCCO4)n2)c1` [R909242, N4-(1,4-Benzoxazin-6-yl)-N2-[3-ethoxyocarbonylmethyleneoxyphenyl]-5-fluoro-2,4-pyrimidinediamine] were, in that order, 567 nM and > 10 µM.
The like results for `CNC(=O)COc1cccc(Nc2nc(Nc3ccc4c(c3)NCCO4)ncc2F)c1` [R909247, N2-(1,4-Benzoxazin-6-yl)-5-fluoro-N4-[3-(N-methylamino)carbonylmethyleneoxyphenyl]-2,4-pyrimidinediamine] were, in that order, 2390 nM and > 10 µM.
The like results for `CNC(=O)COc1cccc(Nc2nc(Nc3cccc4c3CCO4)ncc2F)c1` [R909249, N2-(4-Dihydrobenzofuranyl)-5-fluoro-N4-[3-(N-methylamino)carbonylmethyleneoxyphenyl]-2,4-pyrimidinediamine] were, in that order, > 10000 nM and > 10 µM.
Turning to `CC(O)CNC(=O)COc1cccc(Nc2ncc(F)c(Nc3ccc4c(c3)NCCO4)n2)c1` (centres unmarked) [R909251, N4-(1,4-Benzoxazin-6-yl)-5-fluoro-N2-[3-(N-2-hydroxypropylamino)carbonylmethyleneoxyphenyl]-2,4-pyrimidinediamine], the IC50 in assay [1] is 138 nM; in assay [2] it was > 10 µM.
For `O=C(COc1cccc(Nc2ncc(F)c(Nc3ccc4c(c3)NCCO4)n2)c1)NCCCO` [R909252, N4-(1,4-Benzoxazin-6-yl)-5-fluoro-N2-[3-(N-3-hydroxypropylamino)carbonylmethyleneoxyphenyl]-2,4-pyrimidinediamine], the IC50 in assay [1] was 248 nM; in assay [2], > 10 µM.
In the same order, the values of `CNC(=O)COc1cccc(Nc2nc(Nc3ccc(OCCN(C)C)cc3)ncc2F)c1` [R909253, N2-[4-(2-N,N-Dimethylaminoethyl)oxyphenyl]-5-fluoro-N4-[3-(N-methylamino)carbonylmethyleneoxyphenyl]-2,4-pyrimidinediamine] are 7960 nM and > 10 µM.
The like results for `CC(C)NC(=O)COc1cccc(Nc2ncc(F)c(Nc3ccc4c(c3)NCCO4)n2)c1` [R909254, N4-(1,4-Benzoxazin-6-yl)-N2-[3-(N-isopropylamino)carbonylmethyleneoxyphenyl]-5-fluoro-2,4-pyrimidinediamine] were, in that order, 136 nM and > 10 µM.
In the same order, the values of `CNC(=O)COc1cccc(Nc2ncc(F)c(Nc3ccc4c(c3)N(C)C(=O)CO4)n2)c1` [R909260, 5-Fluoro-N2-[3-(N-methylaminocarbonylmethyleneoxy)phenyl]-N4-[6-(N-methyl-1,4-benzoxazin-3-onyl)]pyrimidinediamine] are 1040 nM and > 10 µM.
On to `CNC(=O)COc1cccc(Nc2ncc(F)c(Nc3ccc4c(c3)OCC(=O)N4C)n2)c1` [R909261], for which the IC50 is 930 nM in assay [1] and > 10 µM in assay [2].
The like results for `O=C1COc2ccc(Nc3ncc(F)c(Nc4cccc(O)c4)n3)cc2N1` [R909268, N2-(1,4-Benzoxazin-3-on-6-yl)-5-fluoro-N4-(3-hydroxyphenyl)-2,4-pyrimidinediamine] were, in that order, 71 nM and > 10 µM.
In the same order, the values of `CCOC(=O)COc1cccc(Nc2ncc(F)c(Nc3ccc4c(c3)NC(C)(C)CO4)n2)c1` [R909308] are 671 nM and > 10 µM.
The like results for `CNC(=O)COc1cccc(Nc2ncc(F)c(Nc3ccc4c(c3)NC(C)(C)CO4)n2)c1` [R909309, N4-(3,3-Dimethyl-1,4-benzoxazin-6-yl)-5-fluoro-N2-[3-(N-methylaminocarbonylmethyleneoxy)phenyl]-2,4-pyrimidinediamine] were, in that order, 83 nM and > 10 µM.
Take `FC(F)(F)c1cnc(Nc2ccc3c(c2)OCCO3)nc1Nc1ccc2c(c1)OCCO2` [R920669]: the IC50 in assay [1] is 420 nM; in assay [2] it was > 10 µM.
Regarding `CCOc1ccc(Nc2nc(Nc3ccc4c(c3)OCCO4)ncc2F)cc1` [R920670, N4-(4-ethyloxyphenyl)-N2-(3,4-ethylenedioxyphenyl)-5-fluoro-2,4-pyrimidinediamine], the figures for the IC50 in assay [1] and in assay [2] were 2180 nM and > 10 µM, respectively.
Turning to `Oc1cccc(Nc2nc(Nc3ccc(OCc4nnn[nH]4)cc3)ncc2F)c1` [R920818, 5-Fluoro-N4-(3-hydroxyphenyl)-N2-[4-(1,2,3,4-tetrazol-5-yl)methyleneoxyphenyl]-2,4-pyrimidinediamine], the half-maximal inhibitory concentration (IC50) was > 10000 nM in assay [1] and > 10 µM in assay [2].
Take `Oc1cccc(Nc2ccnc(Nc3ccc(OCc4nn[nH]n4)cc3)n2)c1` [R920819, N4-(3-Hydroxyphenyl)-N2-[4-(1H,1,2,3,4-tetrazol-5-yl)methyleneoxyphenyl]-2,4-pyrimidinediamine]: the IC50 is 10000 nM in assay [1] and > 10 µM in assay [2].
In the same order, the values of `Cc1cnc(Nc2ccc(OCc3nnn[nH]3)cc2)nc1Nc1cccc(O)c1` [R920820, N4-(3-Hydroxyphenyl)-5-methyl-N2-[4-(1H,1,2,3,4-tetrazol-5-yl)methyleneoxyphenyl]-2,4-pyrimidinediamine] are > 10000 nM and > 10 µM.
For the compound `Oc1cccc(Nc2nc(Nc3ccc(OCc4nnn[nH]4)cc3)ncc2C(F)(F)F)c1` [R920846], the IC50 in assay [1] (Homo sapiens, Mast cell) was > 10000 nM; in assay [2] (Homo sapiens, Mast cell), > 10 µM.
